Source: PMC8396344, “Palmitoylation of Prolactin-Releasing Peptide Increased Affinity for and Activation of the GPR10, NPFF-R2 and NPFF-R1 Receptors: In Vitro Study” (International Journal of Molecular Sciences, 2021)
No end group written: not given here.

Experiments:
NPFF-R2 [1] = biological target: T1, NPFF-R2 (Homo sapiens, UniProt Q9Y5X5); test: Competitive binding, [^125I]-1DMe, membranes of CHO-K1 cells with NPFF-R2
T1 construct: host or cells: CHO-K1 (AequoScreen, co-expressing aequorin)
Procedure: (§1) Pellets of CHO-K1 cells containing NPFF-R2, NPFF-R1 and KOR receptors were homogenized in ice-cold homogenizing buffer (20 mM HEPES pH 7.1, 5 mM MgCl2, 0.7 mM bacitracin) with a DIAX 100 Homogenizer (Heidolph Instruments, Schwabach, Germany) and centrifuged in an ultracentrifuge (Beckman Coulter, Fullerton, CA, USA) at 26,000× g for 15 min at 4 °C. The pellets were homogenized in ice-cold homogenization buffer, and the previous steps were repeated 2 more times. After the third centrifugation, pellets were resuspended in ice-cold storage buffer (50 mM Tris-Cl pH 7.4, 0.5 mM EDTA, 10 mM MgCl2, 10% sucrose), and aliquots were stored at −80 °C. The concentration of isolated membrane proteins was determined by a PierceTM BCA Protein Assay Kit (Pierce, Rockford, IL, USA). […]
(§2) Experiments were carried out in duplicate at least three times, and Ki was calculated using the Cheng-Prusoff equation.
(§3) Data were analyzed by GraphPad Software (San Diego, CA, USA) and are presented as the means ± SEM. The saturation and competitive binding experiments were analyzed according to [46] using the Cheng-Prusoff equation [33]. […] From saturation binding experiments, the dissociation constant (Kd) and number of binding sites/cell (Bmax) were calculated. Inhibition constants (Ki) were calculated from IC50 values, Kd and the concentration of radioligands.

KOR = biological target: T2, KOR (Homo sapiens, UniProt P41145); test: Competitive and saturation binding, [^125I]-dynorphin, membranes of CHO-K1 cells with KOR; conditions: competition with [^125I]-dynorphin A, CHO-K1 membranes 5 µg protein/tube, 60 min RT; mean ± SEM, 2–5 independent experiments in duplicates; Cheng-Prusoff
T2 construct: host or cells: CHO-K1
Procedure: as §1, §2, §3

Y1 = biological target: T3, Y1 (Homo sapiens, UniProt P25929); test: Competitive and saturation binding, [^125I]-PYY, U2OS cells with Y1
T3 construct: host or cells: U2OS
T3 sequence (P25929 1-384): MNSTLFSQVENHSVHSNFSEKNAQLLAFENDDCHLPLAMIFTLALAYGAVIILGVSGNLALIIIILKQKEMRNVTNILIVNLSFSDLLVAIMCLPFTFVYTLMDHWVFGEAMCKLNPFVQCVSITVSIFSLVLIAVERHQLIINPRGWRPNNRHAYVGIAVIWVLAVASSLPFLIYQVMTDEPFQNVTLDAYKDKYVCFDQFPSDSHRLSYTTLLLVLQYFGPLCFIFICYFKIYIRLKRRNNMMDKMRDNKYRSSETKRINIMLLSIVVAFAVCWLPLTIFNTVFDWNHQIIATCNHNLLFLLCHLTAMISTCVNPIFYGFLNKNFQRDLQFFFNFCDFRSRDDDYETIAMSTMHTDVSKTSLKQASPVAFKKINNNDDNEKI
Procedure: Competition binding experiments were performed according to [45]. […] Binding experiments using U2OS cells were optimized and performed in assay buffer (50 mM Tris-Cl pH 7.4, 118 mM NaCl, 5 mM MgCl2, 4.7 mM KCl, 0.1% BSA) for cells stably expressing GHSR and (25 mM HEPES, 120 mM NaCl, 5 mM MgCl2, 4.7 mM KCl, 1 mM CaCl2, 0.5% BSA, 2 g/L glucose) for cells containing receptors Y1, Y2 and Y5. […] Cells were incubated for 60 min at room temperature (RT).
as §2
Data were analyzed by GraphPad Software (San Diego, CA, USA) and are presented as the means ± SEM. The saturation and competitive binding experiments were analyzed according to [46] using the Cheng-Prusoff equation [33]. The competitive binding curves were plotted compared to the best fit for single-binding site models, and half maximal inhibitory concentration (IC50) values were obtained from nonlinear regression analysis. From saturation binding experiments, the dissociation constant (Kd) and number of binding sites/cell (Bmax) were calculated. Inhibition constants (Ki) were calculated from IC50 values, Kd and the concentration of radioligands.

NPFF-R2 [2] = biological target: T1, NPFF-R2; test: Intracellular Ca^2+ mobilization, AequoScreen CHO-K1 cells with NPFF-R2; format: cell-based; conditions: CHO-K1 NPFF-R2 aequorin cells; peptides 10^−12 to 10^−5 M; mean ± SEM, three times in duplicates; read-out: EC50 intracellular Ca^2+ release, NPFF-R2
Procedure: The intracellular Ca^2+ level was measured using the AequoScreen stable CHO-K1 cell line containing NPFF-R2 purchased from Perkin Elmer according to the manufacturer’s protocol. Cells at 80–90% confluence cultured in media without selective antibiotics were detached (PBS pH 7.4 + 0.5 mM EDTA) and centrifuged. Cells resuspended in phenol red-free DMEM with 0.1% protease-free BSA and 5 µM coelenterazine h (Thermo Fisher Scientific Inc. Brand) were seeded at 50,000 cells/well in 96-well plates and incubated in the dark at RT with gentle agitation for 4 h. Peptides were tested at concentrations from 10^−12 to 10^−5 M. Luminescent light emission was recorded using a FlexStation 3 plate reader.
Ca^2+ release assay data are shown as the percentage of maximal response, and the results were analyzed by nonlinear regression as log agonist versus response using GraphPad software. Data are representative of at least three experiments, each performed in duplicate.

Y5 = biological target: T4, Y5 (Homo sapiens, UniProt Q15761); test: Beta-lactamase reporter gene assay (FRET), Y5; format: cell-based
T4 construct: host or cells: U2OS
T4 sequence (Q15761 1-445): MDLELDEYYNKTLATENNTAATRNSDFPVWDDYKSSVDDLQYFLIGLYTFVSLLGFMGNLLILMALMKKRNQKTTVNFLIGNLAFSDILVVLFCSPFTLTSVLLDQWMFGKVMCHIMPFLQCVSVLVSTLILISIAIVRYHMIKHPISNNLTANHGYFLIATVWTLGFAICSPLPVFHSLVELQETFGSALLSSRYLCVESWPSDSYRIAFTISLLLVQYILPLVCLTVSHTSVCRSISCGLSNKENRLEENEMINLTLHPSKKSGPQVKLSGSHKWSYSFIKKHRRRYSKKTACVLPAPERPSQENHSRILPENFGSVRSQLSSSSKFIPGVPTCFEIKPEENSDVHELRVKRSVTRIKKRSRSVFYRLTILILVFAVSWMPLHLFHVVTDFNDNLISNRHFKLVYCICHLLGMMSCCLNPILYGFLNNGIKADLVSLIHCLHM

Row | Compound | Ki (NPFF-R2 [1]) [nM] | Ki (KOR) [nM] | Ki (Y1) [nM] | EC50 (NPFF-R2 [2]) [nM] | EC50 (Y5) [nM]
1 | CCCCCCCCCCCCCCCC(=O)N[C@@H](CO)C(=O)N[C@@H](CCCNC(=N)N)C(=O)N[C@H](C(=O)N[C@@H](Cc1c[nH]cn1)C(=O)N[C@@H](CCCNC(=N)N)C(=O)N[C@@H](Cc1c[nH]cn1)C(=O)N[C@@H](CO)C(=O)N[C@@H](CCSC)C(=O)N[C@@H](CCC(=O)O)C(=O)N[C@H](C(=O)N[C@@H](CCCNC(=N)N)C(=O)N[C@H](C(=O)N1CCC[C@H]1C(=O)N[C@@H](CC(=O)O)C(=O)N[C@H](C(=O)N[C@@H](CC(N)=O)C(=O)N1CCC[C@H]1C(=O)N[C@@H](C)C(=O)N[C@@H](Cc1c[nH]c2ccccc12)C(=O)N[C@@H](Cc1ccc(O)cc1)C(=O)N[C@@H](C)C(=O)N[C@@H](CO)C(=O)N[C@@H](CCCNC(=N)N)C(=O)NCC(=O)N[C@H](C(=O)N[C@@H](CCCNC(=N)N)C(=O)N1CCC[C@H]1C(=O)N[C@H](C(=O)NCC(=O)N[C@@H](CCCNC(=N)N)C(=O)N[C@@H](Cc1ccccc1)C(N)=O)C(C)C)[C@@H](C)CC)[C@@H](C)CC)[C@@H](C)O)[C@@H](C)CC)[C@@H](C)O [Palm-PrRP31] | 0.77 ± 0.19 | 106 ± 15 | 3147 ± 31 | 14.2 ± 1.52 | 56.5 ± 18.4
2 | SRAHQHSMETRTPDINPAWYTGRGIRPVGRF-NH2 [PrRP31, prolactin-releasing peptide 31, reference compound] | 26.7 ± 9.01 | > 10000 | > 10000 | 89.33 ± 0.84 | > 10000
